Measurements: PubChem BioAssay (NCI)
Where “and” joins values, the source holds several entries; their conditions need not be identical. Identical values can stand only once.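 Where inhibition never reached the appropriate level, the endpoint shown equals the highest concentration tested. Otherwise, values were interpolated linearly from a five-concentration, 48-hour dose response in 96-well plates. GI50 is the concentration that inhibits growth by half. At the TGI there is no net growth.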 Where a SMILES comes first, the peptide text is derived from it. [ ]: non-standard residue; d: D form. Ava = NCCCCC(=O)O; Mpa = O=C(O)CCS

How the values were obtained:
Experiment in all cases: inhibition of tumour cell growth, NCI panel, 48 h
OVCAR-4 ovarian = tested on: OVCAR-4 ovarian
SK-MEL-5 melanoma = tested on: SK-MEL-5 melanoma
SW-620 colon = tested on: SW-620 colon
OVCAR-8 ovarian = tested on: OVCAR-8 ovarian
HL-60(TB) leukemia = tested on: HL-60(TB) leukemia
EKVX NSCLC = tested on: EKVX NSCLC
HOP-92 NSCLC = tested on: HOP-92 NSCLC
T-47D breast = tested on: T-47D breast
HS 578T breast = tested on: HS 578T breast
PC-3 prostate = tested on: PC-3 prostate

SMILES	TGI (OVCAR-4 ovarian)	TGI (SK-MEL-5 melanoma)	TGI (SW-620 colon)	TGI (OVCAR-8 ovarian)	TGI (HL-60(TB) leukemia)	TGI (EKVX NSCLC)	TGI (HOP-92 NSCLC)	TGI (T-47D breast)	TGI (HS 578T breast)	TGI (PC-3 prostate)	GI50 (SK-MEL-5 melanoma)	GI50 (OVCAR-8 ovarian)	GI50 (HL-60(TB) leukemia)	GI50 (EKVX NSCLC)	GI50 (HOP-92 NSCLC)
O=c1c(NCc2ccccc2)c(C2(c3ccccc3F)SCCCS2)c1=O	> 100 µM	> 100 µM	> 100 µM	> 100 µM	> 100 µM	> 100 µM	> 100 µM	> 100 µM	> 100 µM	> 100 µM					
CC(C)CC1c2[nH]c3ccccc3c2C[C@H]2C(=O)NC(Cc3c[nH]c4ccccc34)C(=O)N12 (stereo not given in full)	63.8 µM	26 µM	58.5 µM	39 µM	40.9 µM	45.4 µM	34.5 µM	42.5 µM	26.2 µM	41.9 µM					
Cc1cccc2c(=O)c3cccc([C@H](C)C(=O)O)c3oc12	> 100 µM	> 100 µM	> 100 µM	> 100 µM	> 100 µM	> 100 µM	> 100 µM	> 100 µM	> 100 µM	> 100 µM					
COc1ccc(-c2cc(-c3ccc(C)cc3)n(C3OC(COC(C)=O)C(OC(C)=O)C(OC(C)=O)C3OC(C)=O)c(=S)c2C#N)cc1 (stereo not given)	> 100 µM	> 100 µM	> 100 µM	> 100 µM	> 100 µM	> 100 µM	> 100 µM	> 100 µM	> 100 µM	> 100 µM					
COc1ccc2[nH]c3ccc4cc[n+](CCN5CCC(C6CCN(CC[n+]7ccc8ccc9[nH]c%10ccc(OC)cc%10c9c8c7)CC6)CC5)cc4c3c2c1	17.7 µM and > 100 µM	41.3 µM and 60.7 µM	> 36.9 µM	50 µM and > 100 µM	50 µM and 8.43 µM	> 50 µM and 63.1 µM	28.1 µM and 5.47 µM	50 µM	50 µM	50 µM	6.7 µM	8.28 µM	4.47 µM and 0.899 µM	3.19 µM	27.7 µM
N=c1oc2ccc3ccccc3c2cc1-c1nc2ccccc2c(=O)[nH]1	67.2 µM	> 100 µM	> 100 µM	> 100 µM	> 100 µM	> 100 µM	41.9 µM	> 100 µM	87.6 µM	> 100 µM					
CCCC(=O)OCC1OC(n2cc(F)c(=O)[nH]c2=O)CC1OC(=O)CCC (stereo not given)	> 10 µM	2.39 µM	> 10 µM	> 10 µM	> 10 µM	> 10 µM	> 10 µM	> 10 µM	> 10 µM	> 10 µM					
COC(=O)C1(Cc2ccc3c(c2)CCC3)Cc2ccc3c(c2C1=O)CCC3 (stereo not given)	> 66.7 µM	28.2 µM	> 71.1 µM	> 100 µM	8.83 µM	> 100 µM	54 µM	> 68.6 µM	16.4 µM	> 95.2 µM					
COc1ccc2c(c1)/C(=C\c1c(Cl)nc3n1CCS3)C(=O)N2	> 100 µM	17.2 µM	> 100 µM	> 100 µM	17.2 µM	77 µM	> 100 µM	32.7 µM	44.1 µM	20 µM					
O=[N+]([O-])c1ccc2c(c1)nc1n2C(c2c(F)cccc2F)SC1 (stereo not given)	> 100 µM	> 100 µM	> 100 µM	> 100 µM	> 100 µM	> 100 µM	> 100 µM	> 100 µM	> 100 µM	> 100 µM					
CC(NC(=O)CCS)C(=O)NC(C)C(=O)NC(Cc1c[nH]c2ccccc12)C(=O)NC(Cc1c[nH]cn1)C(=O)NC(CO)C(=O)NC(Cc1c[nH]c2ccccc12)C(=O)NCCCCC(=O)NC(C)C(=O)NC(CCC(N)=O)C(=O)NC(CCCCN)C(=O)NC(C)C(=O)NC(CCCNC(=N)N)C(=O)NC(CCCCN)C(N)=O (stereo not given) ([Mpa]AAWHSW[Ava]AQKARK-NH2; configuration not given here)	> 100 µM	> 100 µM	> 100 µM	> 100 µM	65.4 µM	> 100 µM	> 100 µM	64 µM	> 100 µM	> 100 µM					
CCO/N=C\c1ccc2oc(-c3ccccc3)cc(=O)c2c1	> 85.9 µM	5.54 µM	> 100 µM	12.5 µM	12.2 µM	36.8 µM	31.5 µM	63.6 µM	42.8 µM	20.4 µM					
Cc1cc2ncn(CC(=O)O)c2cc1C	> 100 µM	> 100 µM	> 100 µM	> 100 µM	> 100 µM	> 100 µM	> 100 µM	> 100 µM	> 100 µM	> 100 µM					
COc1cc2c(cc1OC)C(CCN)=NCC2	47.4 µM	35.6 µM	17.1 µM	33.1 µM	2.06 µM	59 µM	15.1 µM	31.1 µM	59.9 µM	29.6 µM					
CCC1c2[nH]c3ccccc3c2C[C@H]2C(=O)NC(C)C(=O)N12 (stereo not given in full)	> 100 µM	> 100 µM	> 100 µM	> 100 µM	> 100 µM	> 100 µM	> 100 µM	> 100 µM	> 100 µM	> 100 µM					
O=C(CCCc1cccc2[nH]c3c(c12)CN(Cc1ccccc1)CC3)c1ccc(F)cc1	> 100 µM	45.8 µM	> 100 µM	> 100 µM	10.3 µM	> 100 µM	> 100 µM	> 58.7 µM	> 100 µM	> 100 µM					
Cc1ccc(C(=O)Nc2ccc(S(=O)(=O)O)c3cc(S(=O)(=O)O)cc(S(=O)(=O)O)c23)cc1NC(=O)c1cccc(NC(=O)Nc2cccc(C(=O)Nc3cc(C(=O)Nc4ccc(S(=O)(=O)O)c5cc(S(=O)(=O)O)cc(S(=O)(=O)O)c45)ccc3C)c2)c1	> 100 µM	> 100 µM	> 100 µM	> 100 µM	> 100 µM	> 100 µM	> 100 µM	> 100 µM	> 100 µM	> 100 µM					
